Assays:
[1] = biological target: Bromodomain adjacent to zinc finger domain protein 2B (Homo sapiens, UniProt Q9UIF8); assay: Binding affinity to biotinylated BAZ2B (2054 to 2168 amino acid residues) (unknown origin) expressed in Rosetta2 DE3 cells by bio-layer interferometry method
[2] = biological target: CREB-binding protein (Homo sapiens, UniProt Q92793); assay: Binding affinity to biotinylated CREBBP (1043 to 1159 amino acid residues) (unknown origin) expressed in Rosetta2 DE3 cells by bio-layer interferometry method
[3] = biological target: Bromodomain-containing protein 2 (Homo sapiens, UniProt P25440); assay: Displacement of FAM-labeled ZBA248 from BRD2 BD1 (72 to 205 amino acid residues) (unknown origin) expressed in Rosetta2 DE3 cells after 30 mins by fluorescence polarization assay
Chain of Bromodomain-containing protein 2 (P25440 whole entry, the tested form may be a part): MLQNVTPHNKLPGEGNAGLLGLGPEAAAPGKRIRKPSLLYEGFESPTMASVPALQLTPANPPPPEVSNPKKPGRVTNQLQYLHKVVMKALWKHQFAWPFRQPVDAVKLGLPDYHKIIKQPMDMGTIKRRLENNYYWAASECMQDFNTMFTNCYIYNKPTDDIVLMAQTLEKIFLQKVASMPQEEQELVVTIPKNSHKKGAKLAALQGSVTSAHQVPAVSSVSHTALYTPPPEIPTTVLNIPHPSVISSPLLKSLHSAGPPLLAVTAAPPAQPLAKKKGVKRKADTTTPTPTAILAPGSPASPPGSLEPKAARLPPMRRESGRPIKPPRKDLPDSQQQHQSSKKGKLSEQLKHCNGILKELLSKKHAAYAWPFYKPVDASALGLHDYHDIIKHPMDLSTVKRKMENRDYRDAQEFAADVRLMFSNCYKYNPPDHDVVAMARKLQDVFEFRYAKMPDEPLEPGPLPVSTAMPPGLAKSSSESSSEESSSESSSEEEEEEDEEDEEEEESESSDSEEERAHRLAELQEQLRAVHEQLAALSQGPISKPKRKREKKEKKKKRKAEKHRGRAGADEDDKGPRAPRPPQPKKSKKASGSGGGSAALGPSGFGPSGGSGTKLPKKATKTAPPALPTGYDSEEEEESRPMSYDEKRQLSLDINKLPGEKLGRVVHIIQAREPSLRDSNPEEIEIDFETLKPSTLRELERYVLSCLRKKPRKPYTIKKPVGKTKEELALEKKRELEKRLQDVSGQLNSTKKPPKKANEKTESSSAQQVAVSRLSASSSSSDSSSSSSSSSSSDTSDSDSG

[4] = biological target: Transcription initiation factor TFIID subunit 1 (Homo sapiens, UniProt P21675); assay: Binding affinity to biotinylated TAF1B2 (155 to 276 amino acid residues) (unknown origin) expressed in Rosetta2 cells by bio-layer interferometry method
Chain of Transcription initiation factor TFIID subunit 1 (P21675 whole entry, the tested form may be a part): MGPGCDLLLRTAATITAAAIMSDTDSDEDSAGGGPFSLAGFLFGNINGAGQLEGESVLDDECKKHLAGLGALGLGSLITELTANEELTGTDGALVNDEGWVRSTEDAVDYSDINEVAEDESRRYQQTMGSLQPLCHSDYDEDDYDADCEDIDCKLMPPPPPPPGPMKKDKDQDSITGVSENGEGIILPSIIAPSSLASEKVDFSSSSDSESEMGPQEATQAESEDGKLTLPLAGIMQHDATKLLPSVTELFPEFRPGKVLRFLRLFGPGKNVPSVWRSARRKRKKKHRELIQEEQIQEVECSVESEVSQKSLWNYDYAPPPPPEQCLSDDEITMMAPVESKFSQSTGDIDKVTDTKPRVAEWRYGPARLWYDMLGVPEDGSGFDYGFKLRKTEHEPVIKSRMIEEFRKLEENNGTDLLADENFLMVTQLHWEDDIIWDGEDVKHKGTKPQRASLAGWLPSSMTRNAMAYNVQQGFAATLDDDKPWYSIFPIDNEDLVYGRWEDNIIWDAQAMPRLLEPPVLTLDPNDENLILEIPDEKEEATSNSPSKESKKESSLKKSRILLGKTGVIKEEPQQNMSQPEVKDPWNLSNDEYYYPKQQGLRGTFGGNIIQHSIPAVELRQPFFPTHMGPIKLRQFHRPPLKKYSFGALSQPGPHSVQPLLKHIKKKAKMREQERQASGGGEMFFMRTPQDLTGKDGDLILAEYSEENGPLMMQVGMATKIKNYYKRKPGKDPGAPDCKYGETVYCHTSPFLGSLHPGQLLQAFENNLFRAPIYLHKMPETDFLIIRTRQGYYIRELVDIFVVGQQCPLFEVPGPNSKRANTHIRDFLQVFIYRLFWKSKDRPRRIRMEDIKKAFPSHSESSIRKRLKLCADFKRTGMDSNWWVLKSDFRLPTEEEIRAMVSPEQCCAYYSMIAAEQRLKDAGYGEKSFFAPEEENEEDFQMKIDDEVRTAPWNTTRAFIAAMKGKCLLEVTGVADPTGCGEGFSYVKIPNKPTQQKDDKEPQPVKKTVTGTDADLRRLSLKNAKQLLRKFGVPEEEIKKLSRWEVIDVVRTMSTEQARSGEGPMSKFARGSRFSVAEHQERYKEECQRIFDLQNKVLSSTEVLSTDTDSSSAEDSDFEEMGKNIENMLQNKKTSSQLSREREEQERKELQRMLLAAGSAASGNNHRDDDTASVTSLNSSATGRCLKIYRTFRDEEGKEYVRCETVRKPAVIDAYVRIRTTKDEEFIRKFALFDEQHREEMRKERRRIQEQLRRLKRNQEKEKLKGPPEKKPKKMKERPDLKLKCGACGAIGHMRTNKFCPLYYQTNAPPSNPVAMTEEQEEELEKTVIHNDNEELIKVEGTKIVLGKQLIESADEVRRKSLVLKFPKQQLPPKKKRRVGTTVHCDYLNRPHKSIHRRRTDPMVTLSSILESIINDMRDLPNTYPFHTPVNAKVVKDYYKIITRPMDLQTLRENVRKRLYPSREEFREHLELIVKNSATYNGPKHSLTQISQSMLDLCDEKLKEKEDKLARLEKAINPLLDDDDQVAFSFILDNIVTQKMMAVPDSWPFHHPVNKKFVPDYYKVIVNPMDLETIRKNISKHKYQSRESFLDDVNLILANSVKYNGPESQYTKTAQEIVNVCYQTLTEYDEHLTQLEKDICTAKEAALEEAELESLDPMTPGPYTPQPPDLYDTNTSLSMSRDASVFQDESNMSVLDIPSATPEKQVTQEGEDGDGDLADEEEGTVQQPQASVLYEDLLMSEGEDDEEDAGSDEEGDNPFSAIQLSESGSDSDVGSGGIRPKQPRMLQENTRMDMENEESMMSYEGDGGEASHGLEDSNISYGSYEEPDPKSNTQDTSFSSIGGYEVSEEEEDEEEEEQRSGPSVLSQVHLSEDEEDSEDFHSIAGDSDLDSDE

[5] = biological target: T1, ATPase family AAA domain-containing protein 2 (Homo sapiens, UniProt Q6PL18); assay: Binding affinity to biotinylated ATAD2A (981 to 1108 amino acid residues) (unknown origin) expressed in Rosetta2 DE3 cells by bio-layer interferometry method
T1 sequence (Q6PL18 whole entry): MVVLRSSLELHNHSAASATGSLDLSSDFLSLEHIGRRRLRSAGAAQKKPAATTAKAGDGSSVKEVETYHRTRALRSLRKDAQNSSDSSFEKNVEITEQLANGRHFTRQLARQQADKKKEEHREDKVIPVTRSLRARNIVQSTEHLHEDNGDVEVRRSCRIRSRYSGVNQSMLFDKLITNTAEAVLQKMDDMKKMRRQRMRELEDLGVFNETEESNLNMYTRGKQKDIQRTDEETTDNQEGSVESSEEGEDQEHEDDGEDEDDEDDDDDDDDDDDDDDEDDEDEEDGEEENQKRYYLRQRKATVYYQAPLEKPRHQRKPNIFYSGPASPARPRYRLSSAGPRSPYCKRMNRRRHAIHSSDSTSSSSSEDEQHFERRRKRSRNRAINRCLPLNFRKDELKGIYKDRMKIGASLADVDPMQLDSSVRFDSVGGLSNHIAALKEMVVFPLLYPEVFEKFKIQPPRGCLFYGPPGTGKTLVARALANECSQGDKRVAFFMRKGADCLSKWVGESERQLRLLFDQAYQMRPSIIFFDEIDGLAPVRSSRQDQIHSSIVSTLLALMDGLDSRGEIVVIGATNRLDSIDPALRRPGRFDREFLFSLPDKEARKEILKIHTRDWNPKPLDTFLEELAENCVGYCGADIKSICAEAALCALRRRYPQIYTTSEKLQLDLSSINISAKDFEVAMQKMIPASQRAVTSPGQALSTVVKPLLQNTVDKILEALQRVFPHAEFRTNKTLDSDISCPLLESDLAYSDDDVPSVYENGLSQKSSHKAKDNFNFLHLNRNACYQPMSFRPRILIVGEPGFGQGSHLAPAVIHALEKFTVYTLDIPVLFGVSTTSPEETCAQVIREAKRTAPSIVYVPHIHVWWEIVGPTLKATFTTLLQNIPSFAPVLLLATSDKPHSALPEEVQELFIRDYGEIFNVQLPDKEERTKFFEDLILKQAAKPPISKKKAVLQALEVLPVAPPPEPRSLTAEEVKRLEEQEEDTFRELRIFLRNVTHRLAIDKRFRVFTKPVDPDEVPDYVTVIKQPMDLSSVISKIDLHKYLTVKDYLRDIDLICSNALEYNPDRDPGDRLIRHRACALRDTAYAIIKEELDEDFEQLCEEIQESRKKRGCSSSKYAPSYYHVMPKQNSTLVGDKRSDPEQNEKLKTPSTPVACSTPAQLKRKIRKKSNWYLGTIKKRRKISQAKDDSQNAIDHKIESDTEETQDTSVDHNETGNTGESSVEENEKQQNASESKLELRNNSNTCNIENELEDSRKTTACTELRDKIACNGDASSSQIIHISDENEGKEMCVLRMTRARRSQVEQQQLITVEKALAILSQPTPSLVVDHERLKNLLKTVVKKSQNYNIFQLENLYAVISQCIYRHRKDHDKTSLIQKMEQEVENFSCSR

[6] = biological target: T2, Transcription intermediary factor 1-alpha (Homo sapiens, UniProt O15164); assay: Binding affinity to biotinylated TRIM24 (790 to 972 amino acid residues) (unknown origin) expressed in Rosetta2 DE3 cells by bio-layer interferometry method
T2 sequence (O15164 whole entry): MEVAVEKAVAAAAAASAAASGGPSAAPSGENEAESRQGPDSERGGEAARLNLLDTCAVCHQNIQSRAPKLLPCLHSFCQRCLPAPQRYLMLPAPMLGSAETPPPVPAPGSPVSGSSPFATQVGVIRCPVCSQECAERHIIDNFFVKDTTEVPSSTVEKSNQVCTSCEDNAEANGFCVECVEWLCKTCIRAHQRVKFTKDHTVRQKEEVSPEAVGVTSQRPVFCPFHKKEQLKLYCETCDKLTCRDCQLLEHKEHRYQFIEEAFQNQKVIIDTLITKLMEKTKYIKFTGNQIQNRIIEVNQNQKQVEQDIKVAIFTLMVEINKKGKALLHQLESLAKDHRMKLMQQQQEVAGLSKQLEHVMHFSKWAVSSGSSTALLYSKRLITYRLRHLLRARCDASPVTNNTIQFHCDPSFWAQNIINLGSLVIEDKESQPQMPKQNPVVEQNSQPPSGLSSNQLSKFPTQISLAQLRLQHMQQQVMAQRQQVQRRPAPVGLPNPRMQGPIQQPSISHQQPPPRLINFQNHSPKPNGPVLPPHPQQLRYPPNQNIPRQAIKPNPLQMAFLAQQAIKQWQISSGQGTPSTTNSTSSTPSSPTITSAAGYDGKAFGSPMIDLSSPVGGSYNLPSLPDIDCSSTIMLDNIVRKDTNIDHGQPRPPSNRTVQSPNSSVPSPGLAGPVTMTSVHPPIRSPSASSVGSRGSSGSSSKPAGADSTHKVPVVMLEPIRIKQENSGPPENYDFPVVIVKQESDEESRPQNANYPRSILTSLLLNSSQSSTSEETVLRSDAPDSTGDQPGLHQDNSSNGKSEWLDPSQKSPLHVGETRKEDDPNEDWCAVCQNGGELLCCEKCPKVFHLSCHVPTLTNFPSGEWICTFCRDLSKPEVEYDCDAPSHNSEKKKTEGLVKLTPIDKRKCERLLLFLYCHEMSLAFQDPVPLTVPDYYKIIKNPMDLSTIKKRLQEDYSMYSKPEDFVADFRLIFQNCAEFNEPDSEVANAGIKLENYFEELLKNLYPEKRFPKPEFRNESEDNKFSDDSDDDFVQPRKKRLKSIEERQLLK

[7] = biological target: SWI/SNF-related matrix-associated actin-dependent regulator of chromatin subfamily A member 4 (Homo sapiens, UniProt P51532); assay: Binding affinity to biotinylated BRG1 (59 to 180 amino acid residues) (unknown origin) expressed in Rosetta2 cells by bio-layer interferometry method
Chain of SWI/SNF-related matrix-associated actin-dependent regulator of chromatin subfamily A member 4 (P51532 whole entry, the tested form may be a part): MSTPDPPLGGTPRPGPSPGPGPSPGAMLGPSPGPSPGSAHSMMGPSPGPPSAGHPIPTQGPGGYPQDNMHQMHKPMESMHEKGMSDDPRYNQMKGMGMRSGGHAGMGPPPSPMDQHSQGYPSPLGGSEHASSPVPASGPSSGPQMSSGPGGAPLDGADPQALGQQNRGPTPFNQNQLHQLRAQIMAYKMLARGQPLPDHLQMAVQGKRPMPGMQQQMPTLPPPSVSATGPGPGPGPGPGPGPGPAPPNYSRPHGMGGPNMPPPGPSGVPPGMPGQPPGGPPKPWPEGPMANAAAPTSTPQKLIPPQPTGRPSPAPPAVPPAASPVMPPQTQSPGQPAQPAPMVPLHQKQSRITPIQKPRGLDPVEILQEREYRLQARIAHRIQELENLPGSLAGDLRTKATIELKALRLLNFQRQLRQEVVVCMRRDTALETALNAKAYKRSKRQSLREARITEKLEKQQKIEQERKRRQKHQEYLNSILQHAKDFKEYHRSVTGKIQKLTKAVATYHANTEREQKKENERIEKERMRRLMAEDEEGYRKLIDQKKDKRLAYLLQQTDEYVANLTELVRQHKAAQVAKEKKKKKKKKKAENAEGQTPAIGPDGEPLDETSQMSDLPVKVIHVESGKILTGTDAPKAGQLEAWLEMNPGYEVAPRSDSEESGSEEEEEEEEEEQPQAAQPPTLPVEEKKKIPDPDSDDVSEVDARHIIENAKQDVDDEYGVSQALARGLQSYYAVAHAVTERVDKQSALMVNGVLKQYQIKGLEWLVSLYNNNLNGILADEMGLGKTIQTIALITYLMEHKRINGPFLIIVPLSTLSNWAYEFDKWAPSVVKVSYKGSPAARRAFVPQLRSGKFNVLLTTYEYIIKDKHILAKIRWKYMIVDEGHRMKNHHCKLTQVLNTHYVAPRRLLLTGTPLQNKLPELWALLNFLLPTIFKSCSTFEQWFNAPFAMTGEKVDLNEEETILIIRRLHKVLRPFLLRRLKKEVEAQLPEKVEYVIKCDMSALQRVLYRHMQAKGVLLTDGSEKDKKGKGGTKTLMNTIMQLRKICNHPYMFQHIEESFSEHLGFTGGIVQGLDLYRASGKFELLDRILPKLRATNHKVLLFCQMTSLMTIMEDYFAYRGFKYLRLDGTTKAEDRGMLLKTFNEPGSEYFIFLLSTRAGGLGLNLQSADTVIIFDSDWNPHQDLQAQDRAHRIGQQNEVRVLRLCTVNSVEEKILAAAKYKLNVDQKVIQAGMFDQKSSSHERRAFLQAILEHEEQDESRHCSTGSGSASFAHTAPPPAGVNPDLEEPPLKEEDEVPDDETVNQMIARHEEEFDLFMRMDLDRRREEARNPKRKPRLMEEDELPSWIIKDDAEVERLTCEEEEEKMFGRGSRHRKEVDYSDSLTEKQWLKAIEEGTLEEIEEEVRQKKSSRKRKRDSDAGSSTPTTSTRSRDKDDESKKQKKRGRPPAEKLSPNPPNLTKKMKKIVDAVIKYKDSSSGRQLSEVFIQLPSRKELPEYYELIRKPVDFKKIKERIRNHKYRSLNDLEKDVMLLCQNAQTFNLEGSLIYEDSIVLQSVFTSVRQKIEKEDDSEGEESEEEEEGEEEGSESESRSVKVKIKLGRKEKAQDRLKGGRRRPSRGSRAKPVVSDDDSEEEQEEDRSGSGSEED

[8] = system: MV4-11; assay: cells; type: functional, cell-based; conditions: Homo sapiens, MV4-11, 96 h

Kd [1]: > 10 µM | Kd [2]: 0.67 µM | Ki [3]: 0.0111 µM | Kd [4]: > 10 µM | Kd [5]: > 10 µM | Kd [6]: 10 µM | Kd [7]: > 10 µM | IC50 [8]: 0.02 µM
Structure (SMILES): COc1cc2c(cc1-c1c(C)noc1C)[nH]c1ccnc(-c3c(C4CC4)n[nH]c3C)c12
